{"source": "patent US20100041089A1", "about": "“IMPROVED METHOD FOR DETECTING CHEMICAL […]” (priority 2006, published 2010)", "system": "yeast genes (expressed mRNA)", "test": "DNA chip measurement of expressed mRNA of yeast genes after culture with a toxic chemical substance", "type": "cell-based, Saccharomyces cerevisiae S288C", "settings": "for level of expressed mRNA in the presence of chemical substance / level in the absence of chemical substance: cultured two hours with the chemical substance; for The level of expressed mRNA in the presence of chemical substance/The level of expressed mRNA in the absence of chemical substance: cultured two hours with substance", "procedure,_shortened": "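Expression is given as treated/untreated fluorescence ratio on a whole-genome yeast DNA chip, a ratio of two or more being significant. Log-phase S288C cultures in YPD at 25 °C received the chemical for 2 h at a dose that slows growth without killing. mRNA was reverse-transcribed with Cy3- or Cy5-dUTP.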", "data": [{"compound": "Cl[C@H]1[C@H](Cl)[C@@H](Cl)[C@@H](Cl)[C@H](Cl)[C@H]1Cl", "note": "[(7), γ-Hexachlorocyclohexane]", "values": [{"measurement": "The level of expressed mRNA in the presence of chemical substance/The level of expressed mRNA in the absence of chemical substance, yeast gene YBR036C", "setting": "gene YBR036C, Metabolism protein genes, DNA chip fluorescence ratio", "result": 1.3}, {"measurement": "The level of expressed mRNA in the presence of chemical substance/The level of expressed mRNA in the absence of chemical substance, yeast gene YBR298C", "setting": "gene YBR298C, Metabolism protein genes, DNA chip fluorescence ratio", "result": 1.7}, {"measurement": "The level of expressed mRNA in the presence of chemical substance/The level of expressed mRNA in the absence of chemical substance, yeast gene YDL067C", "setting": "gene YDL067C (mitochondria-located protein gene), yeast cultured two hours with chemical substance, DNA chip fluorescence ratio to control", "result": 0.8}, {"measurement": "The level of expressed mRNA in the presence of chemical substance/The level of expressed mRNA in the absence of chemical substance, yeast gene YDL078C", "setting": "gene YDL078C, Metabolism protein genes, DNA chip fluorescence ratio", "result": 1.7}, {"measurement": "The level of expressed mRNA in the presence of chemical substance/The level of expressed mRNA in the absence of chemical substance, yeast gene YDL215C", "setting": "gene YDL215C, Metabolism protein genes, DNA chip fluorescence ratio", "result": 1.9}, {"measurement": "The level of expressed mRNA in the presence of chemical substance/The level of expressed mRNA in the absence of chemical substance, yeast gene YDR079W", "setting": "gene YDR079W (mitochondria-located protein gene), yeast cultured two hours with chemical substance, DNA chip fluorescence ratio to control", "result": 1.3}, {"measurement": "The level of expressed mRNA in the presence of chemical substance/The level of expressed mRNA in the absence of chemical substance, yeast gene YDR297W", "setting": "gene YDR297W, Metabolism protein genes, DNA chip fluorescence ratio", "result": 0.6}, {"measurement": "The level of expressed mRNA in the presence of chemical substance/The level of expressed mRNA in the absence of chemical substance, yeast gene YDR387C", "setting": "gene YDR387C, Metabolism protein genes, DNA chip fluorescence ratio", "result": 1.3}, {"measurement": "The level of expressed mRNA in the presence of chemical substance/The level of expressed mRNA in the absence of chemical substance, yeast gene YGL035C", "setting": "gene YGL035C, Metabolism protein genes, DNA chip fluorescence ratio", "result": 1.2}, {"measurement": "The level of expressed mRNA in the presence of chemical substance/The level of expressed mRNA in the absence of chemical substance, yeast gene YGR062C", "setting": "gene YGR062C (mitochondria-located protein gene), yeast cultured two hours with chemical substance, DNA chip fluorescence ratio to control", "result": 1.3}, {"measurement": "The level of expressed mRNA in the presence of chemical substance/The level of expressed mRNA in the absence of chemical substance, yeast gene YGR287C", "setting": "gene YGR287C, Metabolism protein genes, DNA chip fluorescence ratio", "result": 2.2}, {"measurement": "The level of expressed mRNA in the presence of chemical substance/The level of expressed mRNA in the absence of chemical substance, yeast gene YJL070C", "setting": "gene YJL070C, Metabolism protein genes, DNA chip fluorescence ratio", "result": 1.4}, {"measurement": "The level of expressed mRNA in the presence of chemical substance/The level of expressed mRNA in the absence of chemical substance, yeast gene YJL096W", "setting": "gene YJL096W (mitochondria-located protein gene), yeast cultured two hours with chemical substance, DNA chip fluorescence ratio to control", "result": 1.7}, {"measurement": "The level of expressed mRNA in the presence of chemical substance/The level of expressed mRNA in the absence of chemical substance, yeast gene YJL180C", "setting": "gene YJL180C (mitochondria-located protein gene), yeast cultured two hours with chemical substance, DNA chip fluorescence ratio to control", "result": 1.6}, {"measurement": "The level of expressed mRNA in the presence of chemical substance/The level of expressed mRNA in the absence of chemical substance, yeast gene YKR009C", "setting": "gene YKR009C, Metabolism protein genes, DNA chip fluorescence ratio", "result": 1.0}, {"measurement": "The level of expressed mRNA in the presence of chemical substance/The level of expressed mRNA in the absence of chemical substance, yeast gene YLR295C", "setting": "gene YLR295C (mitochondria-located protein gene), yeast cultured two hours with chemical substance, DNA chip fluorescence ratio to control", "result": 1.1}, {"measurement": "The level of expressed mRNA in the presence of chemical substance/The level of expressed mRNA in the absence of chemical substance, yeast gene YLR351C", "setting": "gene YLR351C, Metabolism protein genes, DNA chip fluorescence ratio", "result": 1.4}, {"measurement": "The level of expressed mRNA in the presence of chemical substance/The level of expressed mRNA in the absence of chemical substance, yeast gene YLR375W", "setting": "gene YLR375W, Metabolism protein genes, DNA chip fluorescence ratio", "result": 0.9}, {"measurement": "The level of expressed mRNA in the presence of chemical substance/The level of expressed mRNA in the absence of chemical substance, yeast gene YMR023C", "setting": "gene YMR023C (mitochondria-located protein gene), yeast cultured two hours with chemical substance, DNA chip fluorescence ratio to control", "result": 1.9}, {"measurement": "The level of expressed mRNA in the presence of chemical substance/The level of expressed mRNA in the absence of chemical substance, yeast gene YMR267W", "setting": "gene YMR267W (mitochondria-located protein gene), yeast cultured two hours with chemical substance, DNA chip fluorescence ratio to control", "result": 1.2}, {"measurement": "The level of expressed mRNA in the presence of chemical substance/The level of expressed mRNA in the absence of chemical substance, yeast gene YMR267W", "setting": "gene YMR267W, Metabolism protein genes, DNA chip fluorescence ratio", "result": 1.2}, {"measurement": "The level of expressed mRNA in the presence of chemical substance/The level of expressed mRNA in the absence of chemical substance, yeast gene YMR278W", "setting": "gene YMR278W, Metabolism protein genes, DNA chip fluorescence ratio", "result": 1.8}, {"measurement": "The level of expressed mRNA in the presence of chemical substance/The level of expressed mRNA in the absence of chemical substance, yeast gene YMR293C", "setting": "gene YMR293C, Metabolism protein genes, DNA chip fluorescence ratio", "result": 1.2}, {"measurement": "The level of expressed mRNA in the presence of chemical substance/The level of expressed mRNA in the absence of chemical substance, yeast gene YNL073W", "setting": "gene YNL073W (mitochondria-located protein gene), yeast cultured two hours with chemical substance, DNA chip fluorescence ratio to control", "result": 1.1}, {"measurement": "The level of expressed mRNA in the presence of chemical substance/The level of expressed mRNA in the absence of chemical substance, yeast gene YNR072W", "setting": "gene YNR072W, Metabolism protein genes, DNA chip fluorescence ratio", "result": 1.5}, {"measurement": "The level of expressed mRNA in the presence of chemical substance/The level of expressed mRNA in the absence of chemical substance, yeast gene YOL096C", "setting": "gene YOL096C, Metabolism protein genes, DNA chip fluorescence ratio", "result": 1.7}, {"measurement": "The level of expressed mRNA in the presence of chemical substance/The level of expressed mRNA in the absence of chemical substance, yeast gene YOR180C", "setting": "gene YOR180C, Metabolism protein genes, DNA chip fluorescence ratio", "result": 0.8}, {"measurement": "The level of expressed mRNA in the presence of chemical substance/The level of expressed mRNA in the absence of chemical substance, yeast gene YOR316C", "setting": "gene YOR316C (mitochondria-located protein gene), yeast cultured two hours with chemical substance, DNA chip fluorescence ratio to control", "result": 1.4}, {"measurement": "The level of expressed mRNA in the presence of chemical substance/The level of expressed mRNA in the absence of chemical substance, yeast gene YOR363C", "setting": "gene YOR363C, Metabolism protein genes, DNA chip fluorescence ratio", "result": 0.7}, {"measurement": "The level of expressed mRNA in the presence of chemical substance/The level of expressed mRNA in the absence of chemical substance, yeast gene YPL040C", "setting": "gene YPL040C (mitochondria-located protein gene), yeast cultured two hours with chemical substance, DNA chip fluorescence ratio to control", "result": 0.8}, {"measurement": "The level of expressed mRNA in the presence of chemical substance/The level of expressed mRNA in the absence of chemical substance, yeast gene YPL134C", "setting": "gene YPL134C (mitochondria-located protein gene), yeast cultured two hours with chemical substance, DNA chip fluorescence ratio to control", "result": 1.2}, {"measurement": "The level of expressed mRNA in the presence of chemical substance/The level of expressed mRNA in the absence of chemical substance, yeast gene YPR184W", "setting": "gene YPR184W, Metabolism protein genes, DNA chip fluorescence ratio", "result": 1.3}, {"measurement": "level of expressed mRNA in the presence of chemical substance / level in the absence of chemical substance", "setting": "yeast gene YAL018C", "result": 1.0}, {"measurement": "The level of expressed mRNA in the presence of chemical substance/The level of expressed mRNA in the absence of chemical substance", "setting": "yeast gene YAL053W", "result": 0.7}, {"measurement": "level of expressed mRNA in the presence of chemical substance / level in the absence of chemical substance", "setting": "yeast gene YAR047C", "result": 1.2}, {"measurement": "level of expressed mRNA in the presence of chemical substance / level in the absence of chemical substance", "setting": "yeast gene YAR064W", "result": 1.1}, {"measurement": "level of expressed mRNA in the presence of chemical substance / level in the absence of chemical substance", "setting": "yeast gene YBL044W", "result": 1.1}, {"measurement": "The level of expressed mRNA in the presence of chemical substance/The level of expressed mRNA in the absence of chemical substance", "setting": "yeast gene YBL048W", "result": 1.9}, {"measurement": "The level of expressed mRNA in the presence of chemical substance/The level of expressed mRNA in the absence of chemical substance", "setting": "yeast gene YBL107C", "result": 2.1}, {"measurement": "level of expressed mRNA in the presence of chemical substance / level in the absence of chemical substance", "setting": "yeast gene YBR012C", "result": 1.5}, {"measurement": "level of expressed mRNA in the presence of chemical substance / level in the absence of chemical substance", "setting": "yeast gene YBR066C", "result": 1.3}, {"measurement": "level of expressed mRNA in the presence of chemical substance / level in the absence of chemical substance", "setting": "yeast gene YBR124W", "result": 1.1}, {"measurement": "level of expressed mRNA in the presence of chemical substance / level in the absence of chemical substance", "setting": "yeast gene YBR162C", "result": 0.3}, {"measurement": "level of expressed mRNA in the presence of chemical substance / level in the absence of chemical substance", "setting": "yeast gene YBR287W", "result": 1.1}, {"measurement": "level of expressed mRNA in the presence of chemical substance / level in the absence of chemical substance", "setting": "yeast gene YCL056C", "result": 1.6}, {"measurement": "level of expressed mRNA in the presence of chemical substance / level in the absence of chemical substance", "setting": "yeast gene YCR007C", "result": 2.0}, {"measurement": "level of expressed mRNA in the presence of chemical substance / level in the absence of chemical substance", "setting": "yeast gene YDL046W", "result": 1.2}, {"measurement": "The level of expressed mRNA in the presence of chemical substance/The level of expressed mRNA in the absence of chemical substance", "setting": "yeast gene YDL072C", "result": 1.8}, {"measurement": "The level of expressed mRNA in the presence of chemical substance/The level of expressed mRNA in the absence of chemical substance", "setting": "yeast gene YDL204W", "result": 3.2}, {"measurement": "The level of expressed mRNA in the presence of chemical substance/The level of expressed mRNA in the absence of chemical substance", "setting": "yeast gene YDL222C", "result": 1.0}, {"measurement": "level of expressed mRNA in the presence of chemical substance / level in the absence of chemical substance", "setting": "yeast gene YDR090C", "result": 1.5}, {"measurement": "level of expressed mRNA in the presence of chemical substance / level in the absence of chemical substance", "setting": "yeast gene YDR128W", "result": 0.8}]}]}
